Measured values published in US20250228835A1, “PYRIDINYLOXYPYRIDINES AND RELATED COMPOUNDS AND THEIR USE IN TREATING MEDICAL CONDITIONS” (Rectify Pharmaceuticals, Inc., priority 2024, published 2025).
pEC50: −log10 of the molar value.

Columns and labels:
Assay type in all cases: cell-based
[1] = molecular target: T1, ABCB4 WT (Homo sapiens, UniProt P21439); assay: ABCB4 WT assay: HiBit protein expression; conditions: HEK-293 cells stably expressing HiBit-tagged ABCB4 WT; 24 h treatment; top concentration 30 μM; read-out: ABCB4 WT EC50, Emax
T1 construct: expressed in transfected cells
In short: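 HEK-293 cells stably expressing HiBit-tagged human ABCB4 WT, treated 24 h at 37 °C with 11-dose 3-fold dilutions, top final 30 μM in 0.3% DMSO. HiBit lytic reagent luminescence read after 1 h at 25 °C; Emax and EC50 derived.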

[2] = molecular target: T2, ABCA4 P1380L (Homo sapiens, UniProt P78363, P1380L); assay: A4 correction dose-response assay: ABCA4 P1380L HiBit protein expression; conditions: HEK-293 cells stably expressing HiBit-tagged ABCA4 P1380L; 24 h treatment; top concentration 30 μM; read-out: ABCA4 P1380L EC50, Emax
T2 construct: expressed in transfected cells
In short: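 Cells transfected with HiBit-tagged human ABCA4 P1380L cDNA were treated for 24 h at 37°C with an eleven-point dilution series (top final 30 μM, 0.3% DMSO).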

[3] = molecular target: T3, ABCD2 WT (Homo sapiens, UniProt Q9UBJ2); assay: D2 correction dose-response assay: ABCD2 WT HiBit protein expression; conditions: HEK-293/ABCD2 WT cells, 24 hours treatment, HiBit luminescence; class combines EC50 and Mean MaxAct (fold); read-out: ABCD2 WT EC50, Emax
T3 construct: expressed in transfected cells
T3 sequence (Q9UBJ2 1-740): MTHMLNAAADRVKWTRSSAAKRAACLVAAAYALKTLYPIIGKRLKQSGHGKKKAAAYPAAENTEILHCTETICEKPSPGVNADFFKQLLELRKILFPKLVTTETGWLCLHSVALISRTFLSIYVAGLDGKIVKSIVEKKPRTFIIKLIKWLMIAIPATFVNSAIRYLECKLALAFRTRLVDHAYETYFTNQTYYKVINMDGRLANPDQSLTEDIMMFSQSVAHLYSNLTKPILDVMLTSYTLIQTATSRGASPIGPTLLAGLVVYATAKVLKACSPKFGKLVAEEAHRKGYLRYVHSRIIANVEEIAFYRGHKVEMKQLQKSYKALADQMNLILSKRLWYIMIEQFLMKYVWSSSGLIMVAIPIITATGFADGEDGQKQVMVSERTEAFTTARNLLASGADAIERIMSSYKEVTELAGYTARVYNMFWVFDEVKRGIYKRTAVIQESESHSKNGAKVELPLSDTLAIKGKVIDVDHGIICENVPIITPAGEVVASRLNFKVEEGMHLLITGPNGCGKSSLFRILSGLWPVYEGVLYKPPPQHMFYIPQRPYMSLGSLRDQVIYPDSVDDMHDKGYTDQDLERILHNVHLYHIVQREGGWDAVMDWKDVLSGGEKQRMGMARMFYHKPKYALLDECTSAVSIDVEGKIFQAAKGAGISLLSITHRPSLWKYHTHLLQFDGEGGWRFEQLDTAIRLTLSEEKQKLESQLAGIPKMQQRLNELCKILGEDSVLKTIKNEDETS
In short: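 HEK-293 cells stably expressing HiBit-tagged human ABCD2 WT were treated with 11 doses (3-fold dilutions, top final 30 μM, 0.3% DMSO) for 24 h at 37 °C. Expression was measured by HiBit lytic luminescence after 1 h at 25 °C, giving EC50 and Emax.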

T2 sequence (P78363 whole entry P1380L): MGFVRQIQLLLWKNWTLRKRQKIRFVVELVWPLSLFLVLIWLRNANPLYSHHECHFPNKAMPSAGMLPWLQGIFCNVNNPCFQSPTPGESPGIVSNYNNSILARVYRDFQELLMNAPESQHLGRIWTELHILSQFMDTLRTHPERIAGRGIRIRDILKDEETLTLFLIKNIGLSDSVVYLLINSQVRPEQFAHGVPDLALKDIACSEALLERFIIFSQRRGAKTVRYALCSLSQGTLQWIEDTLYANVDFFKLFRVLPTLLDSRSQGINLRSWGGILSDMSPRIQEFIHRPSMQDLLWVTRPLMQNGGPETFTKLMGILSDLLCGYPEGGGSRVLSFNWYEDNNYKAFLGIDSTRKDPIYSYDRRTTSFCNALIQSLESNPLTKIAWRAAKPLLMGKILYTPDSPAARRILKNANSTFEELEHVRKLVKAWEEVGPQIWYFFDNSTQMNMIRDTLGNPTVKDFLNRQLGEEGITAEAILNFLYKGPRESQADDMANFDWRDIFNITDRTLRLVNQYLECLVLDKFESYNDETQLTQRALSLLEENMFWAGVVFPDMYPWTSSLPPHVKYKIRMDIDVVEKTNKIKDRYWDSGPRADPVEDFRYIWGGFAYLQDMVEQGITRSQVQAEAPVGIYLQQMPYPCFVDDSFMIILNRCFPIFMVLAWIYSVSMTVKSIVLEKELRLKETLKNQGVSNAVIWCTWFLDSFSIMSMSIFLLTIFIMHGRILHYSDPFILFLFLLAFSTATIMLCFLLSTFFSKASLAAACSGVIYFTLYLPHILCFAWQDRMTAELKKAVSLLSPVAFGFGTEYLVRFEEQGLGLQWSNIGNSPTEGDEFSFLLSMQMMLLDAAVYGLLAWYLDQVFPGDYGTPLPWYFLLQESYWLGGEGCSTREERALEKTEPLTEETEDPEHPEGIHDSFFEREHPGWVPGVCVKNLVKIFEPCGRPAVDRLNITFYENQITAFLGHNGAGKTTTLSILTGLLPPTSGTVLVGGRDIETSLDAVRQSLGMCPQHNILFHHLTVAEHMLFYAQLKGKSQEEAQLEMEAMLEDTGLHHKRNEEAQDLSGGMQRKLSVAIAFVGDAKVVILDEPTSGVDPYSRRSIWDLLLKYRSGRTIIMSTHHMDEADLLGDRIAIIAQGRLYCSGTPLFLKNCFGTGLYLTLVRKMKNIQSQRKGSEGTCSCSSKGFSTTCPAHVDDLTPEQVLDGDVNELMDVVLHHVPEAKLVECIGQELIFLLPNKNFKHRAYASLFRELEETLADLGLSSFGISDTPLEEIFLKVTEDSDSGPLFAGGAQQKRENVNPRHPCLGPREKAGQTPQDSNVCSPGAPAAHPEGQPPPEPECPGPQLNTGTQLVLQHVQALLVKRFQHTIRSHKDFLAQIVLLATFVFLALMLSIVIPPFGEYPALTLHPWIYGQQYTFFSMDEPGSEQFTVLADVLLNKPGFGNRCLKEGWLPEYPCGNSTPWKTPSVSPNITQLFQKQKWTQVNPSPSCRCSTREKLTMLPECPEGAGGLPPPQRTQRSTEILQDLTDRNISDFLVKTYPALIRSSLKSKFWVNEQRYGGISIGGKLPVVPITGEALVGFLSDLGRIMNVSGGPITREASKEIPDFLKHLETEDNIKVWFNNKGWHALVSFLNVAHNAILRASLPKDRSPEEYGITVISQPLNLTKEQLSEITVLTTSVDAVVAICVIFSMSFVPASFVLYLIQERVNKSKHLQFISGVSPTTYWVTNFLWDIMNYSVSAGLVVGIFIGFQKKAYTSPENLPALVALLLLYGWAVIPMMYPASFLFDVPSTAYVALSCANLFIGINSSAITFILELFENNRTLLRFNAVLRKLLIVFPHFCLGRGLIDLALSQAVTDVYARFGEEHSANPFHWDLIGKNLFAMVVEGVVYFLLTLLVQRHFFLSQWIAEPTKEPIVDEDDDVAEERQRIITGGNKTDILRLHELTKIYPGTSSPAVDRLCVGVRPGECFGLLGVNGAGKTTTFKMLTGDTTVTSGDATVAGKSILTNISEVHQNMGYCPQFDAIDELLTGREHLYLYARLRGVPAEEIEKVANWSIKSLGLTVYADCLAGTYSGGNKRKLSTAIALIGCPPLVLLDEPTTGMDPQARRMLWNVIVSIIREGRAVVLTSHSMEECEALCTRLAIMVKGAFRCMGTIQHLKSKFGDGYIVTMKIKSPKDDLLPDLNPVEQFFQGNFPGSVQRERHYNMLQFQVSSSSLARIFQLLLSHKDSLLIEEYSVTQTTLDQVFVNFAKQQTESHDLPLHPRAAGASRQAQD
T1 sequence (P21439 whole entry): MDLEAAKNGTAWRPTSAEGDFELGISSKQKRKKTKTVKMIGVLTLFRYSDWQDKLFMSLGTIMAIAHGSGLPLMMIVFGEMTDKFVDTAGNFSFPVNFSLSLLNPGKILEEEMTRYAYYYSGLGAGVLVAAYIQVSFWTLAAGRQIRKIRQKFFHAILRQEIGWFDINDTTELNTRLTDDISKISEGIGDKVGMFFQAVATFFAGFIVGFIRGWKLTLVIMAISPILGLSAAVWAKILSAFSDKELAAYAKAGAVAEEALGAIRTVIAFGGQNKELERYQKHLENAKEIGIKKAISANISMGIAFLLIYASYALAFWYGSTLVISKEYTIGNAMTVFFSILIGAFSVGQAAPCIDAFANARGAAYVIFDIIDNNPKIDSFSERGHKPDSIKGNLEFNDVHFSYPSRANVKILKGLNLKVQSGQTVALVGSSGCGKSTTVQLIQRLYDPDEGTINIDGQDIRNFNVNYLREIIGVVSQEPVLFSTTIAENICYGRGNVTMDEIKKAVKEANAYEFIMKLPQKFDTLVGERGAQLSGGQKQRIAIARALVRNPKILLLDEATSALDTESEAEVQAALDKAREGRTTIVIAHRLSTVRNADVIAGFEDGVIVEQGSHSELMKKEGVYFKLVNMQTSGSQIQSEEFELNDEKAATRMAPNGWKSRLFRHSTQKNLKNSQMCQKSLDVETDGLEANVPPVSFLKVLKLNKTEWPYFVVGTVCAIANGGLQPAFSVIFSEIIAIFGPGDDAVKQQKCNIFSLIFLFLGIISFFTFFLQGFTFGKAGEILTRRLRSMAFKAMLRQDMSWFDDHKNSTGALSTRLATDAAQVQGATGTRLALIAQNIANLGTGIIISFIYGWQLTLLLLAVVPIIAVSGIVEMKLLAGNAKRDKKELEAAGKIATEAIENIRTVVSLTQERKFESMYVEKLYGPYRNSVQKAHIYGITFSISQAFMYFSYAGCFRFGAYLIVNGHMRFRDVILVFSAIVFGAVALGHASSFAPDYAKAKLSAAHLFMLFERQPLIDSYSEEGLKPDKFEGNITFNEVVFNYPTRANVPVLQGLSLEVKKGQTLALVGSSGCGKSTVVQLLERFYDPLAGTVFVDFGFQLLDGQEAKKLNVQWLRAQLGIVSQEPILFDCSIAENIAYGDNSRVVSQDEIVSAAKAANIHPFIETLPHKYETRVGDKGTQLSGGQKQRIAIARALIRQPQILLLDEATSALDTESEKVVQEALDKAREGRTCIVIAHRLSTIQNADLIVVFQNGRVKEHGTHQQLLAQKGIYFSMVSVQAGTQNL

## Cc1cc(C)c(Oc2nc(-c3cncc(Cl)c3)ccc2S(=O)(=O)NCc2ccccn2)c(C2CC2)c1 [Compound I-76]
[1]
  pEC50: 5.00 to 6.00
[2]
  pEC50: < 4.60
[3]
  pEC50: 5.00 to 6.00

## Cc1cc(C)c(Oc2nc(-c3cncc(Cl)c3)ccc2N(C)S(C)(=O)=O)c(C)c1 [Compound I-48]
[1]
  pEC50: > 6.00
[2]
  pEC50: < 4.60
[3]
  pEC50: > 6.00

## COC1CC(NS(=O)(=O)c2ccc(-c3cncc(Cl)c3)nc2Oc2c(C)cc(C)cc2C2CC2)C1 (stereo not drawn) [Compound I-74]
[1]
  pEC50: 5.00 to 6.00
[2]
  pEC50: 5.00 to 6.00
[3]
  pEC50: > 4.60

## Cc1cc(C)c(Oc2nc(-c3cncc(Cl)c3)ccc2S(=O)(=O)N[C@@H](c2ccccc2)C(F)(F)F)c(C)c1 [Compound I-83]
[1]
  pEC50: ≤ 4.60
[2]
  pEC50: 5.00 to 6.00
[3]
  pEC50: 5.00 to 6.00

## Cc1cc(C)c(Oc2nc(-c3ccc(C#N)nc3)ccc2NS(C)(=O)=O)c(C)c1 [Compound I-45]
[1]
  pEC50: ≤ 4.60
[2]
  pEC50: > 6.00
[3]
  pEC50: > 6.00

## CNS(=O)(=O)c1ccc(N2CCN(C)C(=O)C2)nc1Oc1c(C)cc(C)cc1C [Compound I-92]
[1]
  pEC50: ≤ 4.60
[2]
  pEC50: < 4.60
[3]
  pEC50: < 4.60

## CNS(=O)(=O)c1ccc(-c2cncc(Cl)c2)nc1Oc1c(C)cc(C)cc1C1CC1 [Compound I-77]
[1]
  pEC50: 5.00 to 6.00
[2]
  pEC50: > 4.60
[3]
  pEC50: > 6.00

## Cc1cc(C)c(Oc2nc(-c3cncc(Cl)c3)ccc2S(=O)(=O)NCc2ccccn2)c(C)c1 [Compound I-86]
[1]
  pEC50: 5.00 to 6.00
[2]
  pEC50: > 4.60
[3]
  pEC50: 5.00 to 6.00

## CC(=O)NC1CN(c2ccc(NS(=O)(=O)c3cccnc3)c(Oc3c(C)cc(C)cc3C3CC3)n2)C1 [Compound I-50]
[1]
  pEC50: 5.00 to 6.00
[2]
  pEC50: < 4.60
[3]
  pEC50: < 4.60

## Cc1cc(C)c(Oc2nc(-c3cncc(Cl)c3)ccc2NS(=O)(=O)C2CC2)c(C)c1 [Compound I-49]
[1]
  pEC50: > 6.00
[2]
  pEC50: < 4.60
[3]
  pEC50: < 4.60

## Cc1cc(C)c(Oc2nc(-c3cncc(Cl)c3)ccc2N2CCCCS2(=O)=O)c(C)c1 [Compound I-66]
[1]
  pEC50: ≤ 4.60
[2]
  pEC50: < 4.60
[3]
  pEC50: 4.60 to 5.00

## Cc1cc(C)c(Oc2nc(-c3cncc(Cl)c3)ccc2NS(C)(=O)=O)c(C2CC2)c1 [Compound I-57]
[1]
  pEC50: > 4.60
[2]
  pEC50: 5.00 to 6.00
[3]
  pEC50: > 6.00

## Cc1cc(C)c(Oc2cc(-c3cncc(Cl)c3)ncc2NS(C)(=O)=O)c(C)c1 [Compound I-56]
[1]
  pEC50: ≤ 4.60
[2]
  pEC50: < 4.60
[3]
  pEC50: 5.00 to 6.00

## Cc1cc(C)c(Oc2nc(N3CCN(S(=O)(=O)C4CC4)CC3)ccc2NS(C)(=O)=O)c(C)c1 [Compound I-44]
[1]
  pEC50: ≤ 4.60
[2]
  pEC50: 4.60 to 5.00
[3]
  pEC50: 4.60 to 5.00

## Cc1cc(C)c(Oc2nc(-c3cncc(Cl)c3)ccc2S(=O)(=O)NCc2ccccc2)c(C)c1 [Compound I-88]
[1]
  pEC50: > 4.60
[2]
  pEC50: 5.00 to 6.00
[3]
  pEC50: 5.00 to 6.00

## Cc1cc(C)c(Oc2nc(-c3cncc(Cl)c3)ccc2N(C)S(=O)(=O)Cc2ccccc2)c(C)c1 [Compound I-64]
[1]
  pEC50: > 4.60
[2]
  pEC50: 5.00 to 6.00
[3]
  pEC50: 5.00 to 6.00

## COc1ccc2nc[nH]c2c1S(=O)(=O)Nc1ccc(-c2cncc(Cl)c2)nc1Oc1c(C)cc(C)cc1C [Compound I-63]
[1]
  pEC50: ≤ 4.60
[2]
  pEC50: 4.60 to 5.00
[3]
  pEC50: < 4.60

## Cc1cc(C)c(Oc2nc(-c3cncc(Cl)c3)ccc2NS(C)(=O)=O)c(C)c1 [Compound I-55]
[1]
  pEC50: ≤ 4.60
[2]
  pEC50: < 4.60
[3]
  pEC50: > 6.00

## Cc1cc(C)c(Oc2nc(-c3cncc(Cl)c3)ccc2NS(=O)(=O)C(C)(C)C)c(C)c1 [Compound I-68]
[1]
  pEC50: ≤ 4.60
[2]
  pEC50: < 4.60
[3]
  pEC50: < 4.60

## Cc1cc(C)c(Oc2nc(-c3cncc(Cl)c3)ccc2N(C2CC2)S(C)(=O)=O)c(C)c1 [Compound I-42]
[1]
  pEC50: ≤ 4.60
[2]
  pEC50: 5.00 to 6.00
[3]
  pEC50: 5.00 to 6.00

## Cc1cc(C)c(Oc2nc(-c3cncc(Cl)c3)ccc2S(=O)(=O)N[C@H](c2ccccc2)C(F)(F)F)c(C)c1 [Compound I-81]
[1]
  pEC50: > 4.60
[2]
  pEC50: 5.00 to 6.00
[3]
  pEC50: 5.00 to 6.00

## Cc1cc(C)c(Oc2nc(-c3cncc(Cl)c3)ccc2S(=O)(=O)Nc2cnn(C)c2)c(C)c1 [Compound I-94]
[1]
  pEC50: 5.00 to 6.00
[2]
  pEC50: 5.00 to 6.00
[3]
  pEC50: 5.00 to 6.00

## Cc1cc(C)c(Oc2nc(-c3cncc(Cl)c3)ccc2N(C)S(=O)(=O)c2cccnc2)c(C2CC2)c1 [Compound I-53]
[1]
  pEC50: ≤ 4.60
[2]
  pEC50: 5.00 to 6.00
[3]
  pEC50: < 4.60

## Cc1cc(C)c(Oc2cc(-c3cncc(Cl)c3)cnc2NS(C)(=O)=O)c(C)c1 [Compound I-60]
[1]
  pEC50: ≤ 4.60
[2]
  pEC50: > 4.60
[3]
  pEC50: 5.00 to 6.00

## Cc1cc(C)c(Oc2nc(-c3cncc(Cl)c3)ccc2S(=O)(=O)N(C)Cc2ccccc2)c(C)c1 [Compound I-85]
[1]
  pEC50: > 4.60
[2]
  pEC50: < 4.60
[3]
  pEC50: 5.00 to 6.00

## CNS(=O)(=O)c1cnc(-c2cncc(Cl)c2)cc1Oc1c(C)cc(C)cc1C [Compound I-84]
[1]
  pEC50: ≤ 4.60
[2]
  pEC50: > 4.60
[3]
  pEC50: 4.60 to 5.00

## CNS(=O)(=O)c1ncc(-c2cncc(Cl)c2)nc1Oc1c(C)cc(C)c(Cl)c1C [Compound I-89]
[1]
  pEC50: 5.00 to 6.00
[2]
  pEC50: < 4.60
[3]
  pEC50: 5.00 to 6.00

## Cc1cc(C)c(Oc2cc(-c3cncc(Cl)c3)cnc2N(C)S(=O)(=O)c2cnn(C)c2)c(C)c1 [Compound I-59]
[1]
  pEC50: ≤ 4.60
[2]
  pEC50: 5.00 to 6.00
[3]
  pEC50: 5.00 to 6.00

## COC1CC(S(=O)(=O)Nc2ccc(-c3cncc(Cl)c3)nc2Oc2c(C)cc(C)cc2C)C1 (stereo not drawn) [Compound I-51]
[1]
  pEC50: > 6.00
[2]
  pEC50: > 6.00
[3]
  pEC50: < 4.60

## Cc1cc(C)c(Oc2nc(-c3cncc(Cl)c3)ccc2N(C)S(=O)(=O)c2cnn(C)c2)c(C)c1 [Compound I-70]
[1]
  pEC50: ≤ 4.60
[2]
  pEC50: < 4.60
[3]
  pEC50: > 6.00

## Cc1cc(C)c(Oc2nc(-c3cncc(Cl)c3)ccc2S(=O)(=O)NCc2cc(C(F)(F)F)ccn2)c(C)c1 [Compound I-87]
[1]
  pEC50: 5.00 to 6.00
[2]
  pEC50: < 4.60
[3]
  pEC50: < 4.60

## Cc1cc(C)c(Oc2nc(-c3cncc(Cl)c3)ccc2S(=O)(=O)Nc2cnn(C)c2)c(C2CC2)c1 [Compound I-75]
[1]
  pEC50: 5.00 to 6.00
[2]
  pEC50: 5.00 to 6.00
[3]
  pEC50: > 4.60

## Cc1cc(C)c(Oc2nc(N3CCN(C(=O)C4CC4)CC3)ccc2NS(C)(=O)=O)c(C)c1 [Compound I-47]
[1]
  pEC50: > 6.00
[2]
  pEC50: < 4.60
[3]
  pEC50: 5.00 to 6.00

## Cc1cc(C)c(Oc2nc(-c3cncc(Cl)c3)ccc2N(C)S(=O)(=O)c2cnn(C)c2)c(C2CC2)c1 [Compound I-52]
[1]
  pEC50: 5.00 to 6.00
[2]
  pEC50: 5.00 to 6.00
[3]
  pEC50: > 6.00

## Cc1cc(C)c(Oc2nc(-c3cn[nH]c3)ccc2NS(C)(=O)=O)c(C2CC2)c1 [Compound I-2]
[1]
  pEC50: ≤ 4.60
[2]
  pEC50: < 4.60
[3]
  pEC50: 4.60 to 5.00
